Experimental data taken from US7462733B2, “Preparation and use of α-keto phosphonates” (University of Southern California, priority 2001, dated 2008).

Experiment: pH dependence of ketone-hydrate equilibrium (31P NMR, absorbance 420 nm)
Format: physicochemical
Text: The ketone 13a and hydrate forms 13b are simultaneously detectable by ^31P, and also via the visible absorbance (420 nm) of the ketone chromophore (yellow). At low pH, the hydrate form 13b predominates, the phosphorus NMR peak shifting from −2 to 15 ppm. The reaction is reversible, the ketone reforming as the pH is increased. The pH at which 50% of the ketone is transferred to its hydrate form (‘pK’) is 2.2 (rt, 10^−7M in D2O). This unequivocally coincides with the protonation of the phosphonate function. Upon addition of MgCl2, the apparent ‘pK’ of the equilibrium shifts by nearly 2 pH units towards left to reach 4.2 (FIG. 4).
We, report here synthesis and characterization of the first example of a new class of nucleotide analog, in which the α,β-phosphoric anhydride oxygen of the 5′-diphosphate moiety is replaced by a reactive carbonyl group: the carbonylbisphosphonate analog of 3′-azido-3′desoxythymidine 5′-diphosphate, 13. The structures of 13 and its diazomethylenebisphosphonate precursor 12 were confirmed by ^1H, ^13C and ^31P NMR, and high-resolution mass spectrometry. The ketone and hydrate forms of 13 are simultaneously detectable by ^31P, and also via the visible absorbance (420 nm) of the ketone chromophore. At low pH, the hydrate form predominates, the phosphorus NMR peak shifting from −2 to 15 ppm. The reaction is reversible, the ketone reforming as the pH is increased. Addition of Mg^2+ shifts the ‘pK’ of the equilibrium by nearly 2 pH units. (See FIG. 4).

In the case of `Cc1cn([C@H]2C[C@H](N=[N+]=[N-])[C@@H](COP(=O)(O)C(=O)P(=O)(O)O)O2)c(=O)[nH]c1=O` [Compound 13a, 3′-Azido-3′-Deoxythymidine 5′-Carbonylbisphosphonate], the “shift of the 'pK' of the equilibrium on addition of Mg2+” value (addition of MgCl2 / Mg^2+) is reported as roughly 2 pH units, the “pH at which 50% of the ketone is transferred to its hydrate form ('pK')” value (rt, 10^−7M in D2O, no Mg) is reported as 2.2 and the “apparent 'pK' of the ketone-hydrate equilibrium” value (upon addition of MgCl2) is reported as 4.2.
